Consider one compound from patent US8940798B2, “Compounds useful for treating and/or preventing disease-associated bone loss” (Centre National de al Recherche Scientifique (CNRS), priority 2011, dated 2015).

The structures appear in SMILES notation.

The target of one experiment is T1, Dock5-DHR2 (Mus musculus, UniProt B2RY04).
T1 construct: Dock5 DHR2 domain (aminoacids E1119 to L1667) was cloned into pEGFP (Clontech) or myc tagged in pRs426Met (21); expressed in transfected cells; host or cells: HEK-293T cells
T1 sequence (B2RY04 1119-1667): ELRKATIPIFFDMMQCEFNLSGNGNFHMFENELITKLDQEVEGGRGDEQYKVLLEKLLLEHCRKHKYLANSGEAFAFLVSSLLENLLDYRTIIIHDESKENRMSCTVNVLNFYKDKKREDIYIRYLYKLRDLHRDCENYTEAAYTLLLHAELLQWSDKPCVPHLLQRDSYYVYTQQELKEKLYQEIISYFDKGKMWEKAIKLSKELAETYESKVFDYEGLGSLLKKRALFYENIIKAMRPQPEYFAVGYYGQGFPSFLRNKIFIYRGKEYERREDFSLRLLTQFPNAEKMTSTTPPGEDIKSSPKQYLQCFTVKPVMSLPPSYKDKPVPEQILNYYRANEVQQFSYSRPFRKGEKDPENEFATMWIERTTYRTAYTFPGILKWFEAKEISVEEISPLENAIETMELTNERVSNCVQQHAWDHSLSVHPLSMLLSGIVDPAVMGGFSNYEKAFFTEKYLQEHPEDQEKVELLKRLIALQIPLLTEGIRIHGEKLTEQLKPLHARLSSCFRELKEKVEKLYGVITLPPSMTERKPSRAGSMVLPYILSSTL
Description: Active (GTP-bound) Rac1 pull-down in 293T cells expressing GFP-fused Dock5-DHR2. It counts as cell-based. Conditions: HEK293T cells, treated for 1 hour, 1% DMSO, western blot. The source says:
(§1) FIGS. 5A-5H: Inhibition of bone resorption by an inhibitor of Rac1 activation by Dock5. (FIG. 5A) Principle of the yeast exchange assay used to identify inhibitors of Dock5 exchange activity. Wild type Rac1 is fused to LexA DNA binding domain (LexA) and its effector Kinectin (Kin) to GAL4 activation domain (GAD). Expression of Dock5-DHR2 activates Rac1, which binds to kinectin, leading to the expression of his3 and then yeast […] for histidine. Inhibitors of Dock5-DHR2 revert Rac1 activation. (FIG. 5B) Growth curves of yeasts expressing Rac1 and Kinectin with (open triangles) and without (dots) Dock5-DHR2, in medium complemented (plain lines) or not (dotted lines) with histidine. (FIG. 5C) Structure of N-(3,5-dichlorophenyl)benzensulfonamide (C21). […] (FIG. 5F) Number of OCs (OC) after a 24-hour incubation with the indicated concentrations of C21, expressed as a % of DMSO control (0 μM C21). […] To activate Rac1, OCs at day 4 of differentiation were starved overnight in the presence of 2% serum, stimulated with 100 ng/ml M-CSF or lifted and replated onto vitronectin-coated plates for 30 minutes prior to lysis, and active Rac1 levels were measured G-LISA kit according to manufacturer's instructions (Cytoskeleton).
For orientation: Immunoblotting shows a protein as a band on a membrane.

The next experiment has as its target T2, GEF TrioN (Homo sapiens, UniProt O75962).
T2 construct: expressed in transfected cells; host or cells: 293T cells
Description: Active (GTP-bound) Rac1 pull-down in 293T cells expressing GFP-fused TrioN. It counts as cell-based. Conditions: HEK293T cells, treated for 1 hour, 1% DMSO, western blot.
Source text: as §1

For `O=S(=O)(Nc1cc(Cl)cc(Cl)c1)c1ccccc1` [C21, N-(3,5-dichlorophenyl)benzenesulfonamide], the “Activation of Rac1 by Dock5-DHR2” value at Dock5-DHR2 was “efficiently inhibits”. Further, on GEF TrioN, the “Rac1 activation by the GEF TrioN” value is on record as “no effect”.
